Columns and labels:
JAK3 enzyme [1] = target: T1, JAK3 enzyme (Homo sapiens, UniProt P52333); test: JAK Caliper Enzyme Assay at 1 mM ATP; assay type: biochemical
T1 sequence (P52333 1-1124): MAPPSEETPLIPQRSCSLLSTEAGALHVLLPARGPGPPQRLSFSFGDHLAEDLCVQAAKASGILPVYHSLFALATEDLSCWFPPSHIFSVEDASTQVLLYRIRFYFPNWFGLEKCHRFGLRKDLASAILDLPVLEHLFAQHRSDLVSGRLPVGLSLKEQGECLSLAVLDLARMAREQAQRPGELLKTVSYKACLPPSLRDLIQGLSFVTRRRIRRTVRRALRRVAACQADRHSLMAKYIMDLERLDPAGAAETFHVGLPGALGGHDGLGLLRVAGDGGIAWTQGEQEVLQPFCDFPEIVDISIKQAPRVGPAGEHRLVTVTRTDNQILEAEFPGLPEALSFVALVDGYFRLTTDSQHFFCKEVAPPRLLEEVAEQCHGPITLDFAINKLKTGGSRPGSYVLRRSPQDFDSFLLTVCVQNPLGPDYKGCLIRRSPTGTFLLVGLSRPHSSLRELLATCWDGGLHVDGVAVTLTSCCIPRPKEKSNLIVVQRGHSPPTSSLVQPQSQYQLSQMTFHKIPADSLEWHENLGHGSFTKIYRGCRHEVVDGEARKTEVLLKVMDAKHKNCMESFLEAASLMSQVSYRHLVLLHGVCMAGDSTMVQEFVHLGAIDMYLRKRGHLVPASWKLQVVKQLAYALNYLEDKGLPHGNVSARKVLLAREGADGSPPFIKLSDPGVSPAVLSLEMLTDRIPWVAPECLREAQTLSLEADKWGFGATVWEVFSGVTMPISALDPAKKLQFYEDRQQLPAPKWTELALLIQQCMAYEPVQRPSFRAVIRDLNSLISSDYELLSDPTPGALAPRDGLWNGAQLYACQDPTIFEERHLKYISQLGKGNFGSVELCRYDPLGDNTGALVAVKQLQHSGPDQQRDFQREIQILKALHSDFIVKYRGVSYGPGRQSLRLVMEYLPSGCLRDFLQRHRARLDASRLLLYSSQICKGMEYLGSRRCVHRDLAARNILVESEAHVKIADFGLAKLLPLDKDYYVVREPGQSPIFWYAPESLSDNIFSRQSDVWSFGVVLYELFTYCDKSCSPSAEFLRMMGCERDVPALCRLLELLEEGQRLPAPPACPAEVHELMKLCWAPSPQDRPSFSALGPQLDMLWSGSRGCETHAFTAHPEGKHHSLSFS
Method: (§1) Test article was solubilized in dimethyl sulfoxide (DMSO) to a stock concentration of 30 mM. An 11-point half log dilution series was created in DMSO with a top concentration of 600 μM. […] Test article and assay controls were added to a 384-well plate. […] Enzyme concentrations and incubation times were optimized for each new enzyme preps and were modified slightly over time to ensure 20%-30% phosphorylation. […] The assay plates were placed on a Caliper Life Science Lab Chip 3000 (LC3000) instrument, and each well was sampled using appropriate separation conditions to measure the unphosphorylated and phosphorylated peptide.

JAK3 enzyme [2] = target: T1, JAK3 enzyme; test: JAK Caliper Enzyme Assay at 4 μM ATP; assay type: biochemical
Method: as §1

In the case of `C=CC(=O)N1C[C@H](CO)C[C@H](Nc2ncnc3[nH]ccc23)C1` (single isomer, unassigned) [Example 99], the IC50 (JAK3 enzyme [1]) is reported as 8990 nM and the IC50 (JAK3 enzyme [2]) is reported as 89.2 nM.
`C=CC(=O)N1C[C@H](Nc2ncnc3[nH]ccc23)CC[C@H]1[C@@H](C)O` (single isomer, unassigned) [Example 110] showed an IC50 (JAK3 enzyme [1]) of over 10000 nM and an IC50 (JAK3 enzyme [2]) of 867 nM.
With `C=CC(=O)N1CCC(Oc2cnc3[nH]cc([C@H](C)O)c3n2)CC1` (single isomer, unassigned) [Example 118] the IC50 (JAK3 enzyme [1]) was 1890 nM and the IC50 (JAK3 enzyme [2]) was 16.1 nM.
`C=CC(=O)N1CC[C@H](Nc2cnc3[nH]cc(C(=O)NCC(F)(F)F)c3n2)C1` (single isomer, unassigned) [Example 254] gave an IC50 (JAK3 enzyme [1]) of 2540 nM and an IC50 (JAK3 enzyme [2]) of 17.2 nM.
For `C=CC(=O)N1CC[C@H](Nc2cnc3[nH]cc(C(=O)NCCC(F)(F)F)c3n2)C1` (single isomer, unassigned) [Example 255], the IC50 (JAK3 enzyme [1]) was 846 nM and the IC50 (JAK3 enzyme [2]) was 6.37 nM.
Compound `C=CC(=O)N1CC[C@@H](Nc2cnc3[nH]cc(C(=O)N[C@@H](C)COC)c3n2)[C@@H](OC)C1` (single isomer, unassigned) [Example 355] has an IC50 (JAK3 enzyme [1]) of 30 nM and an IC50 (JAK3 enzyme [2]) of 0.327 nM.
`C=CC(=O)N1CC[C@H](Nc2cnc3[nH]cc(C(=O)N[C@@H](C)COC)c3n2)[C@H](OC)C1` (single isomer, unassigned) [Example 356] gave an IC50 (JAK3 enzyme [1]) of 831 nM and an IC50 (JAK3 enzyme [2]) of 4.07 nM.
With `C=CC(=O)N1CCN(c2cnc3[nH]cc(C(=O)N[C@@H]4COC[C@@H]4c4ccc(F)cc4)c3n2)CC1(C)C` (stereo in doubt) [Example 143, 2-(4-acryloyl-3,3-dimethylpiperazin-1-yl)-N-[4-(4-fluorophenyl)tetrahydrofuran-3-yl]-5H-pyrrolo[2,3-b]pyrazine-7-carboxamide] the IC50 (JAK3 enzyme [1]) was 1920 nM and the IC50 (JAK3 enzyme [2]) was 22.6 nM.
`C=CC(=O)N1C[C@@H](C)[C@@H](Nc2cnc3[nH]cc(C(=O)NCC)c3n2)C1` (stereo in doubt) [Example 248, 2-[(1-acryloyl-4-methylpyrrolidin-3-yl)amino]-N-ethyl-5H-pyrrolo[2,3-b]pyrazine-7-carboxamide] was tested, and the IC50 (JAK3 enzyme [1]) was 5330 nM and the IC50 (JAK3 enzyme [2]) was 48.7 nM.
With `C=CC(=O)N1C[C@@H](C)[C@@H](Nc2cnc3[nH]cc(C(=O)NCCOC)c3n2)C1` (stereo in doubt) [Example 253, 2-[(1-acryloyl-4-methylpyrrolidin-3-yl)amino]-N-(2-methoxyethyl)-5H-pyrrolo[2,3-b]pyrazine-7-carboxamide] the IC50 (JAK3 enzyme [1]) was 7680 nM and the IC50 (JAK3 enzyme [2]) was 72 nM.
Compound `C=CC(=O)N1C[C@H](C)[C@H](Nc2cnc3[nH]cc(C(=O)NCC)c3n2)C1` (stereo in doubt) [Example 260, 2-[(1-acryloyl-4-methylpyrrolidin-3-yl)amino]-N-ethyl-5H-pyrrolo[2,3-b]pyrazine-7-carboxamide] has an IC50 (JAK3 enzyme [1]) of 676 nM and an IC50 (JAK3 enzyme [2]) of 2.14 nM.
Work on `C=CC(=O)N1CC[C@@H](Oc2cnc3[nH]cc(C(=O)N[C@@H](C)COC)c3n2)C1` [Example 53, 2-{[(3R)-1-acryloylpyrrolidin-3-yl]oxy}-N-[(2S)-1-methoxypropan-2-yl]-5H-pyrrolo[2,3-b]pyrazine-7-carboxamide] yielded an IC50 (JAK3 enzyme [1]) of 4000 nM and an IC50 (JAK3 enzyme [2]) of 31.2 nM.
For `C=CC(=O)N1CCC(N(C)c2cnc3[nH]cc(C(=O)N4CCC4)c3n2)CC1` [Example 62, 1-(4-{[7-(azetidin-1-ylcarbonyl)-5H-pyrrolo[2,3-b]pyrazin-2-yl](methyl)amino}piperidin-1-yl)prop-2-en-1-one], the IC50 (JAK3 enzyme [1]) was 2700 nM and the IC50 (JAK3 enzyme [2]) was 13.5 nM.
Work on `C=CC(=O)N1CCN(c2cnc3[nH]cc(C(=O)N[C@H](C)COC)c3n2)CC1(C)COC` (stereo partly drawn) [Example 63, 2-(4-acryloyl-3-(methoxymethyl)-3-methylpiperazin-1-yl)-N-((R)-1-methoxypropan-2-yl)-5H-pyrrolo[2,3-b]pyrazine-7-carboxamide] yielded an IC50 (JAK3 enzyme [1]) of 379 nM and an IC50 (JAK3 enzyme [2]) of 2.44 nM.
With `C#CCNC(=O)c1c[nH]c2ncc(N3CCN(C(=O)C=C)C(C)(C)C3)nc12` [Example 83, 2-(4-acryloyl-3,3-dimethylpiperazin-1-yl)-N-(prop-2-yn-1-yl)-5H-pyrrolo[2,3-b]pyrazine-7-carboxamide] the IC50 (JAK3 enzyme [1]) was 1110 nM and the IC50 (JAK3 enzyme [2]) was 10.7 nM.
`C=CC(=O)N1CCC(Oc2cnc3[nH]cc(C#N)c3n2)CC1` [Example 114, 2-[(1-Acryloylpiperidin-4-yl)oxy]-5H-pyrrolo[2,3-b]pyrazine-7-carbonitrile] gave an IC50 (JAK3 enzyme [1]) of 3810 nM and an IC50 (JAK3 enzyme [2]) of 19.7 nM.
Compound `C=CC(=O)N1CCC(Oc2cnc3[nH]cc(-c4n[nH]c(C(C)C)n4)c3n2)CC1` [Example 116, 1-[4-({7-[5-(Propan-2-yl)-1H-1,2,4-triazol-3-yl]-5H-pyrrolo[2,3-b]pyrazin-2-yl}oxy)piperidin-1-yl]prop-2-en-1-one] has an IC50 (JAK3 enzyme [1]) of 2550 nM and an IC50 (JAK3 enzyme [2]) of 14.7 nM.
For `C=CC(=O)N1CCC(Oc2cnc3[nH]cc(-c4ncnn4C)c3n2)CC1` [Example 122, 1-(4-{[7-(1-Methyl-1H-1,2,4-triazol-5-yl)-5H-pyrrolo[2,3-b]pyrazin-2-yl}oxy)piperidin-1-yl]prop-2-en-1-one], the IC50 (JAK3 enzyme [1]) was 1470 nM and the IC50 (JAK3 enzyme [2]) was 8.97 nM.
With `C=CC(=O)N1CCC(Oc2cnc3[nH]cc(-c4ncn(CC)n4)c3n2)CC1` [Example 125, 1-(4-{[7-(1-Ethyl-1H-1,2,4-triazol-3-yl)-5H-pyrrolo[2,3-b]pyrazin-2-yl]oxy}piperidin-1-yl)prop-2-en-1-one] the IC50 (JAK3 enzyme [1]) was 1880 nM and the IC50 (JAK3 enzyme [2]) was 7.82 nM.
Work on `C=CC(=O)N1CCC(Oc2cnc3[nH]cc(-c4ncn(C)n4)c3n2)CC1` [Example 126, 1-(4-{[7-(1-Methyl-1H-1,2,4-triazol-3-yl)-5H-pyrrolo[2,3-b]pyrazin-2-yl]oxy}piperidin-1-yl)prop-2-en-1-one] yielded an IC50 (JAK3 enzyme [1]) of 3530 nM and an IC50 (JAK3 enzyme [2]) of 14.9 nM.
In the case of `C=CC(=O)N1CCC(Nc2cnc3[nH]cc(S(=O)(=O)NC(C)C)c3n2)CC1` [Example 127, 2-[(1-Acryloylpiperidin-4-yl)amino]-N-(propan-2-yl)-5H-pyrrolo[2,3-b]pyrazine-7-sulfonamide], the IC50 (JAK3 enzyme [1]) is reported as 1080 nM and the IC50 (JAK3 enzyme [2]) is reported as 9.43 nM.
In the case of `C#CCOCCc1c[nH]c2ncnc(N[C@@H]3CC[C@H](C)N(C(=O)C=C)C3)c12` [Example 131, 1-[(2S,5R)-2-Methyl-5-({5-[2-(prop-2-yn-1-yloxy)ethyl]-7H-pyrrolo[2,3-d]pyrimidin-4-yl}amino)piperidin-1-yl]prop-2-en-1-one], the IC50 (JAK3 enzyme [1]) is reported as 33 nM and the IC50 (JAK3 enzyme [2]) is reported as 0.182 nM.
`C=CC(=O)N1CCN(c2cnc3[nH]cc(C(=O)N[C@@H](C)COCc4ccccc4)c3n2)CC1(C)C` [Example 134, 2-(4-acryloyl-3,3-dimethylpiperazin-1-yl)-N-[(2S)-1-(benzyloxy)propan-2-yl]-5H-pyrrolo[2,3-b]pyrazine-7-carboxamide] was tested, and the IC50 (JAK3 enzyme [1]) was 2530 nM and the IC50 (JAK3 enzyme [2]) was 12.4 nM.
Work on `C=CC(=O)N1CCN(c2cnc3[nH]cc(C(=O)N[C@H](CO)C(CC)CC)c3n2)CC1(C)C` [Example 137, 2-(4-acryloyl-3,3-dimethylpiperazin-1-yl)-N-[(2S)-3-ethyl-1-hydroxypentan-2-yl]-5H-pyrrolo[2,3-b]pyrazine-7-carboxamide] yielded an IC50 (JAK3 enzyme [1]) of 3020 nM and an IC50 (JAK3 enzyme [2]) of 28.1 nM.
`C=CC(=O)N1CCN(c2cnc3[nH]cc(C(=O)N[C@@H](COC)c4ccccc4)c3n2)CC1(C)C` [Example 138, 2-(4-acryloyl-3,3-dimethylpiperazin-1-yl)-N-[(1R)-2-methoxy-1-phenylethyl]-5H-pyrrolo[2,3-b]pyrazine-7-carboxamide] was tested, and the IC50 (JAK3 enzyme [1]) was 4840 nM and the IC50 (JAK3 enzyme [2]) was 46.7 nM.
With `C=CC(=O)N1CCN(c2cnc3[nH]cc(C(=O)N[C@@H]4COC[C@@H]4CC(C)C)c3n2)CC1(C)C` [Example 142, 2-(4-acryloyl-3,3-dimethylpiperazin-1-yl)-N-[(3S,4R)-4-(2-methylpropyl)tetrahydrofuran-3-yl]-5H-pyrrolo[2,3-b]pyrazine-7-carboxamide] the IC50 (JAK3 enzyme [1]) was 4430 nM and the IC50 (JAK3 enzyme [2]) was 60.4 nM.
With `C=CC(=O)N1CCN(c2cnc3[nH]cc(C(=O)N[C@H](CO)[C@@H](C)CC)c3n2)CC1(C)C` [Example 145, 2-(4-acryloyl-3,3-dimethylpiperazin-1-yl)-N-[(2S,3S)-1-hydroxy-3-methylpentan-2-yl]-5H-pyrrolo[2,3-b]pyrazine-7-carboxamide] the IC50 (JAK3 enzyme [1]) was 1930 nM and the IC50 (JAK3 enzyme [2]) was 18.4 nM.
